For two molecules, IC50 results are on record in ChEMBL document CHEMBL5726951, “Small molecule inhibitors of the JAK family of kinases” (2019).

What is called IC50 is the midpoint of a concentration-inhibition curve.

For assay [1], the target named is Non-receptor tyrosine-protein kinase TYK2 (Homo sapiens, UniProt P29597, C1142A/C936A). Nature of the assay: (§1) Enzymatic Inhibition Assay: Substrate (NH2-[…]-CO2), internal standard peptide (NH2-[…]-CO2) and product peptide (for standard curve only) (NH2-[…]-Pi-FELVKK-CO2), were purchased from AnaSpec (Fremont, Calif., USA). JAK1-JH1JH2 (574-1154 with a His-GST Tag and a C-terminal tev (ENLYFQ-G) cleavage site), JAK3-JH1JH2 (512-1124 with a GST Tag and a C-terminal tev (ENLYFQ-G) cleavage site), and Tyk2-JH1JH2 (8H_tev_580-1182-C936A-C1142A with a C-terminal tev (ENLYFQ-G) cleavage site) were purified internally. JAK2-JH1JH2 (532-1132 with a GST tag and C-terminal tev (ENLYFQ-G) cleavage site), was purchased from Invitrogen. LC/MS grade water and acetonitrile (ACN), were purchased from HoneyWell, Burdick & Jackson (Muskegon, Mich., USA). Dimethylsulfoxide 99.8% (DMSO) and trifluoroacetic acid 99.5% (TFA) were purchased from EMD Chemical (Gibbstown, N.J., USA). Adenosine triphosphate (ATP), 4-morpholinepropanesulfonic acid (MOPS), magnesium chloride (MgCl2), ethylenediaminetetraacetic acid (EDTA), dithiothreitol (DTT), formic acid>95% (FA) and Tween-20 were purchased from Sigma (St Louis, Mo., USA). 384-well polypropylene plates, Cat#781280 were purchased from Greiner (Monroe, N.C.), RapidFire™ cartridge A C4 Column (Agilent Technologies, Santa Clara, Calif.).The HTMS experiments were performed in positive ionization mode on a RapidFire 300 instrument (Agilent Technologies, Santa Clara, Calif.), coupled with an ABSiex QTrap 4000 system with an Electrospray Ionization source (RF-MS) (Concord, ON, Canada). The RapidFire system was run with 3 Agilent 1200 series isocratic pumps Agilent Technologies (Santa Clara, Calif.) and one peristaltic pump model ISM832C from Ismatec (Wertheim, Germany). The entire system was operated using the RapidFire software interfaced with Analyst software for the mass spectrometer.Assay Protocol11-point dosing series were made for each compound by serially diluting 1:3 or 1:4 in DMSO, with point 12 being a DMSO control. From the serial dilution plates, sample was transferred to a 384 wells assay plate (#781280, Greiner, Monroe, N.C.) using Labcyte Echo (Sunnyvale, Calif.), or Biosero ATS (San Diego, Calif.). The compounds were tested in duplicate. Column 12 was used for positive controls, and column 24 contained negative controls with no enzyme added. A compound from our internal collection, with inhibitory activity for JAK isoforms, was used as a reference compound. The final concentration of DMSO was ≤0.25% in a 20 μL reaction. The enzyme reaction was initiated by the addition of 10 μL of enzyme and ATP mixture to 10 μL of substrate solution prepared in reaction buffer (50 mM MOPS pH 7.5, 10 mM MgCl2, 1 mM EDTA, 2 mM DTT, 0.002% Tween-20). The Tyk2 enzyme was pre-incubated with 2 mM ATP for 30 min prior to the reaction initiation. Immediately after the addition of the enzyme to the reaction mixture, the plate was centrifuged at 1000 rpm for 1 minute and incubated at 25° C. for 45 minutes for JAK3 and 90 minutes for JAK1, JAK2 and Tyk2. The reaction was quenched by the addition of 20 μL of 0.5% TFA containing 0.15 μM of internal standard peptide using Multidrop Combi reagent dispenser (Thermo Scientific, Waltham, Mass.). Several wells in column 24 were typically used for the product standard curve. After the quench, the assay plate was centrifuged at 3000 rpm for 3 minutes and sealed with pierceable aluminum foil (Cat#06644-001, Agilent) using a PlateLoc (Agilent Technologies, Santa Clara, Calif.). The plates then were transferred on to the RapidFire for the MS analysis. Compound inhibition was assessed by a decrease of the phosphorylated product levels in sample wells compared to the non-inhibited enzyme reaction.
Non-receptor tyrosine-protein kinase TYK2, sequence (P29597 whole entry C936A/C1142A): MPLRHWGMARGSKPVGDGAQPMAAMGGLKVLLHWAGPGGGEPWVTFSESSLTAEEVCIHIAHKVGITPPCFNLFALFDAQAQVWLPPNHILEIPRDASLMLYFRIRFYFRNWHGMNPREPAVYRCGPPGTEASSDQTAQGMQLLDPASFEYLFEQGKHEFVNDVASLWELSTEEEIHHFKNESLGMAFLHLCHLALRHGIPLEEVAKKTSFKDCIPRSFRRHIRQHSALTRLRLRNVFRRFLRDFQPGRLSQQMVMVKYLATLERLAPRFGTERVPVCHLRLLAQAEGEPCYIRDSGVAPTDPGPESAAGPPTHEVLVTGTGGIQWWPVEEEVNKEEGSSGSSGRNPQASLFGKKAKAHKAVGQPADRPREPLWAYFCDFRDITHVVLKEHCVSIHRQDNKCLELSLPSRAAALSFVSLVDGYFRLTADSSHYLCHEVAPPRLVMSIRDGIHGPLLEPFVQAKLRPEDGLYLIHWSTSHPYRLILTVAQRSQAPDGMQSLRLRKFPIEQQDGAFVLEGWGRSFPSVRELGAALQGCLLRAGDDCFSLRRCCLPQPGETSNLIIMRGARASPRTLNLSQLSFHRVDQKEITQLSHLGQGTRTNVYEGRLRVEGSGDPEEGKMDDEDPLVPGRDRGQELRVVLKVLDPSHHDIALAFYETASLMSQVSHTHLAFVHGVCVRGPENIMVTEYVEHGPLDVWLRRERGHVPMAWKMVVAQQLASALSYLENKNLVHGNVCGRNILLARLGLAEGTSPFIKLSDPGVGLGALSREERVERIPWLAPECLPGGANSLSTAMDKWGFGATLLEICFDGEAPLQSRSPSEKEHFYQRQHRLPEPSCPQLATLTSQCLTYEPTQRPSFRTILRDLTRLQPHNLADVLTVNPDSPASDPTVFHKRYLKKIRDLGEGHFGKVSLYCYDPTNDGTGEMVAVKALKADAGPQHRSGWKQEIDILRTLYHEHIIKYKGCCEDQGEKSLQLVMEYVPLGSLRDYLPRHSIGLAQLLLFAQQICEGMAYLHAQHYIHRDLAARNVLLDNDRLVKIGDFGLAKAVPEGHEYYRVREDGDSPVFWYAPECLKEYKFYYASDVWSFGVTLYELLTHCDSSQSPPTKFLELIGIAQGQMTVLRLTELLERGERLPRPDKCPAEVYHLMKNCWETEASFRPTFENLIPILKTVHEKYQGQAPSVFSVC

The target in assay [2] is Tyrosine-protein kinase JAK1 (Homo sapiens, UniProt P23458). Described as §1.
Tyrosine-protein kinase JAK1, sequence (P23458 whole entry): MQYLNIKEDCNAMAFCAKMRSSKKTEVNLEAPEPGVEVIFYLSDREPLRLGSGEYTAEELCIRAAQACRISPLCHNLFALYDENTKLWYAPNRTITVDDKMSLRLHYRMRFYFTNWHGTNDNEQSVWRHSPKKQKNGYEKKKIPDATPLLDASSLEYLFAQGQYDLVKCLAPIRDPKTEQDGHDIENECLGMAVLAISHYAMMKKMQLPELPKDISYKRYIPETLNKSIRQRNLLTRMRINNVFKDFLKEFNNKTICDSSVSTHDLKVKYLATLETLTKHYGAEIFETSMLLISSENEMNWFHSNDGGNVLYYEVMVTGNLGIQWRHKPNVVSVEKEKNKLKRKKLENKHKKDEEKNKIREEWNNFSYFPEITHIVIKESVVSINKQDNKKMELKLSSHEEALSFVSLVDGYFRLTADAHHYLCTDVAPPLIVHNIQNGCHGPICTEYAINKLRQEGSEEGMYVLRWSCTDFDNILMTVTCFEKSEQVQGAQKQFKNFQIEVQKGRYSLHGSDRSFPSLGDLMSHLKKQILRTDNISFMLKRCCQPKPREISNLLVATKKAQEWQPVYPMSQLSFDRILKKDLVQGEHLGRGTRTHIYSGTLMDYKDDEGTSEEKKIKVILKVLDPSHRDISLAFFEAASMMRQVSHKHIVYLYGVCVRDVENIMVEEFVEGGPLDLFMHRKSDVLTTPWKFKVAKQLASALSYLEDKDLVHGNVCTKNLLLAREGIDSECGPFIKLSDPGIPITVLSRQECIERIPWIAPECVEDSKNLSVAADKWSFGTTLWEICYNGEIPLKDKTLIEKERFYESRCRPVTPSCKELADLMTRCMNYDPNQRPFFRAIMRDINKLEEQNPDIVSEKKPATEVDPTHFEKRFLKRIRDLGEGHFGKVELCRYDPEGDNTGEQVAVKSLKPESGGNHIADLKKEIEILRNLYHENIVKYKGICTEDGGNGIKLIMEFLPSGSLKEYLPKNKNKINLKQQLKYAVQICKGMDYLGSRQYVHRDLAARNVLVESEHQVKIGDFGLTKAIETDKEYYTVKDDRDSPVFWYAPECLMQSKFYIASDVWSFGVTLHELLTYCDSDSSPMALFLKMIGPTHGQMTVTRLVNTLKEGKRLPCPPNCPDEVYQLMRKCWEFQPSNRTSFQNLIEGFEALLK
In assay [3] the target is T1, Tyrosine-protein kinase JAK3 (Homo sapiens, UniProt P52333).
T1 sequence (P52333 whole entry): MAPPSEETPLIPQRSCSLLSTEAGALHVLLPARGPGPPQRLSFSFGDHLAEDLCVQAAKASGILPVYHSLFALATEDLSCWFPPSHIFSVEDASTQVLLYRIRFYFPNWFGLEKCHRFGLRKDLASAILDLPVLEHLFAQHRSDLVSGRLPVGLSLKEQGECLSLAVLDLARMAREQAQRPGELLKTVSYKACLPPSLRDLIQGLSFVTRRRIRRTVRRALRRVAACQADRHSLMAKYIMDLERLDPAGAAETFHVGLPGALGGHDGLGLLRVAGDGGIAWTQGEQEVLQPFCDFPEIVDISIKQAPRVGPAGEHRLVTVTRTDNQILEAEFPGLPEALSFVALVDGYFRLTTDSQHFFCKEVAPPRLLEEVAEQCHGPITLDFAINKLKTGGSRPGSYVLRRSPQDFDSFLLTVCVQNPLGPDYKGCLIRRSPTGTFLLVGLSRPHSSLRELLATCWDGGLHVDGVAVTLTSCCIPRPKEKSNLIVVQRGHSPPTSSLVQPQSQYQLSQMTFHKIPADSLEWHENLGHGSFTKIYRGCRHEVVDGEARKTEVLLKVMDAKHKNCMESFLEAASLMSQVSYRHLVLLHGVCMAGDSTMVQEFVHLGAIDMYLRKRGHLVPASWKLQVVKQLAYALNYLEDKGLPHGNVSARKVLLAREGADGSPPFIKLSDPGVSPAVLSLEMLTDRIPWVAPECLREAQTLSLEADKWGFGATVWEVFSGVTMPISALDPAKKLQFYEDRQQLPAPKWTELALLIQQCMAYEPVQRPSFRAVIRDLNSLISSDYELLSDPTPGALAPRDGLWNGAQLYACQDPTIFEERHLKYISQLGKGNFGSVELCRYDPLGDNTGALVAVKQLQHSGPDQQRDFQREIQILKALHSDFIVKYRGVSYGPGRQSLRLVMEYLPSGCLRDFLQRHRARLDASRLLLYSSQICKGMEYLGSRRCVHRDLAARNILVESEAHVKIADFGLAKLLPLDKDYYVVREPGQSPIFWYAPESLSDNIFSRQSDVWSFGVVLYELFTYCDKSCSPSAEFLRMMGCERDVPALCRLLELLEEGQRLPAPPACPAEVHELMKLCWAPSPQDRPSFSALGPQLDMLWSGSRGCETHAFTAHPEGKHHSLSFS
The assay is described as §1.

For assay [4], the target named is Tyrosine-protein kinase JAK2 (Homo sapiens, UniProt O60674). As to the kind of experiment: LC/MS grade water and acetonitrile (ACN), were purchased from HoneyWell, Burdick & Jackson (Muskegon, Mich., USA). […] The compounds were tested in duplicate. Column 12 was used for positive controls, and column 24 contained negative controls with no enzyme added. A compound from our internal collection, with inhibitory activity for JAK isoforms, was used as a reference compound. […] The enzyme reaction was initiated by the addition of 10 μL of enzyme and ATP mixture to 10 μL of substrate solution prepared in reaction buffer (50 mM MOPS pH 7.5, 10 mM MgCl2, 1 mM EDTA, 2 mM DTT, 0.002% Tween-20). The Tyk2 enzyme was pre-incubated with 2 mM ATP for 30 min prior to the reaction initiation. Immediately after the addition of the enzyme to the reaction mixture, the plate was centrifuged at 1000 rpm for 1 minute and incubated at 25° C. for 45 minutes for JAK3 and 90 minutes for JAK1, JAK2 and Tyk2. […] The plates then were transferred on to the RapidFire for the MS analysis. Compound inhibition was assessed by a decrease of the phosphorylated product levels in sample wells compared to the non-inhibited enzyme reaction.
Tyrosine-protein kinase JAK2, sequence (O60674 whole entry, canonical isoform): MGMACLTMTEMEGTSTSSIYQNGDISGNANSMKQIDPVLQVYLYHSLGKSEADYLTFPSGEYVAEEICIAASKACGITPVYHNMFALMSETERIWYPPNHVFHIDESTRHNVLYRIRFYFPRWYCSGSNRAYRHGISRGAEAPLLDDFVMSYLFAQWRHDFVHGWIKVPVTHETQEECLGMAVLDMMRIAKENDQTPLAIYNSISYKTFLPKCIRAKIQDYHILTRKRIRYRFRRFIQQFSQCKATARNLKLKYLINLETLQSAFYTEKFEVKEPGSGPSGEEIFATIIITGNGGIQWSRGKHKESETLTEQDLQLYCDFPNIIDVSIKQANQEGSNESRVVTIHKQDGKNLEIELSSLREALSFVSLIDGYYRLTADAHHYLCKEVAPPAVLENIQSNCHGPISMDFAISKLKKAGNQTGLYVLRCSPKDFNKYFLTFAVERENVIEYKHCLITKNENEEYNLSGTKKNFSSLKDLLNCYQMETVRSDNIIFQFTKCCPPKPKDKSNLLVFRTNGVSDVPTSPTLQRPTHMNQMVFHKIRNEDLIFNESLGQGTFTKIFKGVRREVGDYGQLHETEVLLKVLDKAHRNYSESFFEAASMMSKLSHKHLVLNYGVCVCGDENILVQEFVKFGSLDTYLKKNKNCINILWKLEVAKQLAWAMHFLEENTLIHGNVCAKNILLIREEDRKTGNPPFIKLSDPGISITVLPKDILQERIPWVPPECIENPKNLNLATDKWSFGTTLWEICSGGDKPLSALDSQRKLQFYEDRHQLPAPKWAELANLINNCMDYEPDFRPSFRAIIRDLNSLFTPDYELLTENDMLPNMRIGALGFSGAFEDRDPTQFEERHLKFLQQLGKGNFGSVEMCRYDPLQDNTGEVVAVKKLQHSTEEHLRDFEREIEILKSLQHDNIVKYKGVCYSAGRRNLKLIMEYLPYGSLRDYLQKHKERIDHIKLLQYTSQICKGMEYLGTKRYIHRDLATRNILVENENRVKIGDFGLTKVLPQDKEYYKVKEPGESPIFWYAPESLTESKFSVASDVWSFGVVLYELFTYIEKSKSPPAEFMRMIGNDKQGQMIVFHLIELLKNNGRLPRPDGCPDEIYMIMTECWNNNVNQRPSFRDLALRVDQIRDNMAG

As for `Cc1nc2cnc3[nH]ccc3c2n1[C@H]1CC[C@H](CC#N)CC1`, the IC50 in assay [1] is 0.9 nM; in assay [2], below 0.2 nM; in assay [3], 12.4 nM; in assay [4], below 0.2 nM.

Take `N#CC[C@H]1CC[C@H](n2c(CO)nc3cnc4[nH]ccc4c32)CC1`: the IC50 was below 0.2 nM in assay [1], below 0.2 nM in assay [2], 13.4 nM in assay [3] and below 0.2 nM in assay [4].
